From patent publication US10980910B2, “Apparatus and methods for ozone generation and degradation” (Gene Therapy Systems, Inc., priority 2013, dated 2021)
Where two headings read alike, the source gives them in different places.

Legend:
[1] = tested on: E. coli K-12 cells (strain DH5); assay: Sterilization efficacy on LB agar plates loaded with E. coli, ozone generation and degradation cycle in cell culture chamber; assay type: cell-based; details: test #2 dish; approx. 1.5×10^8 cells plated; ozone 120 minutes plus 15 minutes degradation; peak approx. 140-150 ppm ozone; plates incubated at 37° C. overnight
Method: In tests #2 and #3, represented by lines 520 and 530, respectively, both the ozone generator and an ozone degrader were present in the cell culture chamber. The ozone degrader was formed of three activated carbon filters. With the ozone degrader present, the ozone generator was unable to achieve the peak ozone concentration seen in test #1. In tests #2 and #3, the ozone generator was run for 120 minutes and the concentration of ozone noticeably plateaued. The air within the cell culture chamber reached a peak ozone concentration of approximately 140-150 ppm ozone. After the ozone generator was turned off, the ozone began to break down at an accelerated rate with the activated carbon filters present. In both tests #2 and #3, the ozone levels reached a level of 0.01 ppm ozone within 15 minutes.
While the peak ozone concentrations reached in tests #2 and #3 were noticeably lower than the peak ozone concentration of test #1, the ozone levels in tests #2 and #3 were at least sufficient to achieve sterilization. In each of tests #2 and #3, sterilization efficacy was measured with the assistance of LB agar plates loaded with E. coli bacteria. […] The quantity of E. coli present was then analyzed and a photograph of each plate was taken. […] In the test dish 550, a 100% E. coli kill rate was observed; no E. coli was detected.

[2] = Ozone breakdown in enclosed cell culture chamber, monitored with calibrated ozone analyzer; assay type: physicochemical
Method: In Experiment 1, an 1800 mg/hour ozone generator was placed in a 5.5 cubic feet cell culture. The ozone level within the chamber was monitored using a calibrated ozone analyzer. Ozone measurements were captured every 10 seconds. The experimental results, as represented by ozone level over time, are provided in the line graph 500 of FIG. 5A. In test #1, represented by line 510, the ozone generator was run for 80 minutes and achieved a peak ozone concentration within the cell culture chamber of approximately 325 ppm. After the ozone generator was turned off, the ozone was left to break down naturally within the enclosed cell culture chamber. It took approximately 28 hours for the ozone to breakdown to 0.01 ppm ozone.
In tests #2 and #3, represented by lines 520 and 530, respectively, both the ozone generator and an ozone degrader were present in the cell culture chamber. The ozone degrader was formed of three activated carbon filters. With the ozone degrader present, the ozone generator was unable to achieve the peak ozone concentration seen in test #1. In tests #2 and #3, the ozone generator was run for 120 minutes and the concentration of ozone noticeably plateaued. The air within the cell culture chamber reached a peak ozone concentration of approximately 140-150 ppm ozone. […]

[3] = tested on: humans; details: OSHA limit, per workday; cited from earlier work
[4] = cited from earlier work
[5] = tested on: bacteriophage T1; assay: Effect of ozone on bacteriophage T1 spotted on LB agar plates; assay type: cell-based; details: spots of 10^9 to 10^6 pfu/mL; ozone 4 hours, peak less than 150 ppm; silver-coated mesh generator; DH5 E. coli overlay, 72 hours at room temperature
Method: In Experiment 2, the effect of ozone on bacteriophage T1 was studied. In the experiment, 2.5 μL of purified bacteriophage T1 was spotted in four quadrants of two LB agar plates—a test plate 610 and a control plate 620, shown in FIG. 6. The bacteriophage concentrations on each of the two plates were (clockwise from the spot in the upper right quadrant): 10^9 pfu/mL, 10^8 pfu/mL, 10^7 pfu/mL, and 10^6 pfu/mL.
The test plate 610 was placed in an incubator chamber containing both an ozone generator and an ozone degrader. The ozone generator included two ceramic plates surrounded substantially by a silver-coated metal mesh. The ozone generator was activated and the test plate 610 was treated with ozone for 4 hours. The ozone generator was then turned off, and the ozone degrader, formed of activated carbon filters, accelerated the conversion of ozone to oxygen. The peak ozone concentration level generated within the incubator chamber was less than 150 ppm ozone.
The control plate 620 was placed in a different incubator chamber and left untreated. After the ozone generation and degradation cycle completed in the incubator chamber containing the test plate 610, 1 mL of stationary DH5 E. coli bacteria and top agar were added to each plate and incubated at room temperature for 72 hours. The photograph 600 in FIG. 6 was taken immediately following this 72-hour period.

Structure (SMILES): O=[O+][O-] [ozone]
- E. coli kill rate [1]: 100%
- time for the ozone to breakdown to 0.01 ppm ozone ([2]; test #1, natural breakdown, no degrader, from peak approx. 325 ppm, 5.5 cubic feet chamber): approximately 28 hours
- time for ozone levels to reach 0.01 ppm ozone ([2]; tests #2 and #3, three activated carbon filters as ozone degrader, from peak approx. 140-150 ppm): ≤ 15 min
- acceptable ozone exposure in the workplace [3]: under 0.1 ppm
- half-life ([4]; in the air): 36 to 72 h
- half-life ([4]; in water): 0.13 to 0.5 h
- survival of the T1-phage [5]: negligible survival
